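48-hour exposure; five concentrations; linearly interpolated endpoints. TGI denotes the concentration required for complete inhibition of growth.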
Experiments:
Test in all cases: NCI-60 cell line screen, 48 h
SF-295 CNS = system: SF-295 CNS
UACC-62 melanoma = system: UACC-62 melanoma
OVCAR-4 ovarian = system: OVCAR-4 ovarian
UACC-257 melanoma = system: UACC-257 melanoma
OVCAR-5 ovarian = system: OVCAR-5 ovarian
SNB-19 CNS = system: SNB-19 CNS
NCI-H522 lung = system: NCI-H522 lung
SK-MEL-2 melanoma = system: SK-MEL-2 melanoma
EKVX NSCLC = system: EKVX NSCLC
M14 melanoma = system: M14 melanoma
HOP-62 NSCLC = system: HOP-62 NSCLC
HCT-15 colon = system: HCT-15 colon
NCI-H460 lung = system: NCI-H460 lung
MDA-MB-435 = system: MDA-MB-435
A549 NSCLC = system: A549 NSCLC
CAKI-1 renal = system: CAKI-1 renal
RPMI-8226 leukemia = system: RPMI-8226 leukemia
OVCAR-3 ovarian = system: OVCAR-3 ovarian
HOP-92 NSCLC = system: HOP-92 NSCLC
SNB-75 CNS = system: SNB-75 CNS
SF-268 CNS = system: SF-268 CNS
MDA-MB-231 breast = system: MDA-MB-231 breast
SK-MEL-28 melanoma = system: SK-MEL-28 melanoma
NCI/ADR-RES ovarian = system: NCI/ADR-RES ovarian
MALME-3M melanoma = system: MALME-3M melanoma
MDA-N = system: MDA-N
MCF7 breast = system: MCF7 breast
SK-MEL-5 melanoma = system: SK-MEL-5 melanoma
OVCAR-8 ovarian = system: OVCAR-8 ovarian
BT-549 breast = system: BT-549 breast
COLO 205 colon = system: COLO 205 colon
SK-OV-3 ovarian = system: SK-OV-3 ovarian
SN12C renal = system: SN12C renal
TK-10 renal = system: TK-10 renal
SW-620 colon = system: SW-620 colon
IGROV1 ovarian = system: IGROV1 ovarian
HCC-2998 colon = system: HCC-2998 colon
RXF 393 renal = system: RXF 393 renal
K-562 leukemia = system: K-562 leukemia
KM12 colon = system: KM12 colon
A498 renal = system: A498 renal
HCT-116 colon = system: HCT-116 colon
SR leukemia = system: SR leukemia
NCI-H23 lung = system: NCI-H23 lung
DU-145 prostate = system: DU-145 prostate
HL-60(TB) leukemia = system: HL-60(TB) leukemia
HS 578T breast = system: HS 578T breast
NCI-H226 lung = system: NCI-H226 lung
HT29 colon = system: HT29 colon
ACHN renal = system: ACHN renal
UO-31 renal = system: UO-31 renal
U251 CNS = system: U251 CNS
SF-539 CNS = system: SF-539 CNS
LOX IMVI melanoma = system: LOX IMVI melanoma
786-0 renal = system: 786-0 renal
PC-3 prostate = system: PC-3 prostate
MOLT-4 leukemia = system: MOLT-4 leukemia
CCRF-CEM leukemia = system: CCRF-CEM leukemia
T-47D breast = system: T-47D breast

## Cc1ccc(C(O)c2cnc(C)n2Cc2ccccc2)cc1 (stereo not given)
SF-295 CNS
  TGI: > 100 µM
UACC-62 melanoma
  TGI: > 100 µM
OVCAR-4 ovarian
  TGI: > 100 µM
UACC-257 melanoma
  TGI: > 100 µM
OVCAR-5 ovarian
  TGI: > 100 µM
SNB-19 CNS
  TGI: > 100 µM
NCI-H522 lung
  TGI: > 100 µM
SK-MEL-2 melanoma
  TGI: > 100 µM
EKVX NSCLC
  TGI: > 100 µM
M14 melanoma
  TGI: > 100 µM
HOP-62 NSCLC
  TGI: > 100 µM
HCT-15 colon
  TGI: > 100 µM
NCI-H460 lung
  TGI: > 100 µM
MDA-MB-435
  TGI: > 100 µM
A549 NSCLC
  TGI: > 100 µM
CAKI-1 renal
  TGI: > 100 µM
RPMI-8226 leukemia
  TGI: > 100 µM
OVCAR-3 ovarian
  TGI: > 100 µM
HOP-92 NSCLC
  TGI: > 100 µM
SNB-75 CNS
  TGI: > 100 µM
SF-268 CNS
  TGI: > 100 µM
MDA-MB-231 breast
  TGI: > 100 µM
SK-MEL-28 melanoma
  TGI: > 100 µM
NCI/ADR-RES ovarian
  TGI: > 100 µM
MALME-3M melanoma
  TGI: > 100 µM
MDA-N
  TGI: > 100 µM
MCF7 breast
  TGI: > 100 µM
SK-MEL-5 melanoma
  TGI: > 100 µM
OVCAR-8 ovarian
  TGI: > 100 µM
BT-549 breast
  TGI: > 100 µM
COLO 205 colon
  TGI: > 100 µM
SK-OV-3 ovarian
  TGI: > 100 µM
SN12C renal
  TGI: > 100 µM
TK-10 renal
  TGI: > 100 µM
SW-620 colon
  TGI: > 100 µM
IGROV1 ovarian
  TGI: > 100 µM
HCC-2998 colon
  TGI: > 100 µM
RXF 393 renal
  TGI: > 100 µM
K-562 leukemia
  TGI: > 100 µM
KM12 colon
  TGI: > 100 µM
A498 renal
  TGI: > 100 µM
HCT-116 colon
  TGI: > 100 µM
SR leukemia
  TGI: > 100 µM
NCI-H23 lung
  TGI: > 100 µM
DU-145 prostate
  TGI: > 100 µM
HL-60(TB) leukemia
  TGI: > 100 µM
HS 578T breast
  TGI: > 100 µM
NCI-H226 lung
  TGI: > 100 µM
HT29 colon
  TGI: > 100 µM
ACHN renal
  TGI: > 100 µM
UO-31 renal
  TGI: > 100 µM
U251 CNS
  TGI: > 100 µM
SF-539 CNS
  TGI: > 100 µM
LOX IMVI melanoma
  TGI: > 100 µM
786-0 renal
  TGI: > 100 µM
PC-3 prostate
  TGI: > 100 µM

## Cc1ccc(S(N)(=O)=O)cc1
MOLT-4 leukemia
  TGI: > 1000 µM
SF-295 CNS
  TGI: > 1000 µM
CCRF-CEM leukemia
  TGI: > 1000 µM
UACC-62 melanoma
  TGI: > 1000 µM
UACC-257 melanoma
  TGI: > 1000 µM
OVCAR-5 ovarian
  TGI: > 1000 µM
SNB-19 CNS
  TGI: > 1000 µM
NCI-H522 lung
  TGI: > 1000 µM
SK-MEL-2 melanoma
  TGI: > 1000 µM
EKVX NSCLC
  TGI: > 1000 µM
M14 melanoma
  TGI: > 1000 µM
HOP-62 NSCLC
  TGI: > 1000 µM
HCT-15 colon
  TGI: > 1000 µM
NCI-H460 lung
  TGI: > 1000 µM
MDA-MB-435
  TGI: > 1000 µM
A549 NSCLC
  TGI: > 1000 µM
T-47D breast
  TGI: > 1000 µM
RPMI-8226 leukemia
  TGI: > 1000 µM
OVCAR-3 ovarian
  TGI: > 1000 µM
HOP-92 NSCLC
  TGI: > 1000 µM
SF-268 CNS
  TGI: > 1000 µM
NCI/ADR-RES ovarian
  TGI: > 1000 µM
MALME-3M melanoma
  TGI: > 1000 µM
MDA-N
  TGI: > 1000 µM
MCF7 breast
  TGI: > 1000 µM
SK-MEL-5 melanoma
  TGI: > 1000 µM
OVCAR-8 ovarian
  TGI: > 1000 µM
BT-549 breast
  TGI: > 1000 µM
COLO 205 colon
  TGI: > 1000 µM
SK-OV-3 ovarian
  TGI: > 1000 µM
SN12C renal
  TGI: > 1000 µM
TK-10 renal
  TGI: > 1000 µM
SW-620 colon
  TGI: > 1000 µM
IGROV1 ovarian
  TGI: > 1000 µM
HCC-2998 colon
  TGI: > 1000 µM
RXF 393 renal
  TGI: > 1000 µM
K-562 leukemia
  TGI: > 1000 µM
KM12 colon
  TGI: > 1000 µM
A498 renal
  TGI: > 1000 µM
HCT-116 colon
  TGI: > 1000 µM
SR leukemia
  TGI: > 1000 µM
NCI-H23 lung
  TGI: > 1000 µM
DU-145 prostate
  TGI: > 1000 µM
HL-60(TB) leukemia
  TGI: > 1000 µM
HS 578T breast
  TGI: > 1000 µM
NCI-H226 lung
  TGI: > 1000 µM
HT29 colon
  TGI: > 1000 µM
ACHN renal
  TGI: > 1000 µM
UO-31 renal
  TGI: > 1000 µM
U251 CNS
  TGI: > 1000 µM
SF-539 CNS
  TGI: > 1000 µM
LOX IMVI melanoma
  TGI: > 1000 µM
786-0 renal
  TGI: > 1000 µM
PC-3 prostate
  TGI: > 1000 µM

From PubChem BioAssay (NCI)
